Assay results taken from a melting point compilation (Tetko et al.; mined from patent text by program, amines drawn as free bases though some values may be those of a salt).

melting point | SMILES
92 to 94 °C | COc1cc(CCC(=O)CC(=O)CCc2ccc(O)c(OC)c2)ccc1O
81 to 82 °C | Cc1c(C(F)(F)F)cc([N+](=O)[O-])c(Cl)c1[N+](=O)[O-]
119 to 120 °C | COc1cc(CC(=O)NCCCc2ccc(C)c(C)c2)ccc1OCCNCCN
128 to 130 °C | COc1cc(I)c(C(=O)Oc2ccccc2COC(=O)c2ccc3c(c2I)OCO3)cc1OC
101 to 104 °C | CCOC(=O)Cn1c(C)cc2c1CCCC2=O
94 to 96 °C | CCOC(=O)c1cnc2c(N)cccc2c1
72 to 74 °C | CCSC(=O)c1c(C(F)(F)F)nc(C(F)F)c(C(=O)OC)c1N
125 to 126 °C | CCCc1nn(-c2ccc(C(F)(F)F)cn2)cc1CCCOc1c(CC(=O)O)cnn1CC
100 to 102 °C | CCCCCNC(=O)c1ccc(N2CCC(N3C(=O)C(F)(F)c4ccccc43)CC2)nn1
74 to 75 °C | O=S(=O)(CC(F)(F)F)Nc1ccc(N2CCN(c3ccc(OCC(O)(Cn4cncn4)c4ccc(Cl)cc4Cl)cc3)CC2)cc1 (stereo not drawn)
162 to 164 °C | CCOC(=O)C(=CNc1ccnc(-c2ccccn2)n1)C(=O)OCC
98 to 100 °C | [N-]=[N+]=Nc1ccc(C(=O)NCCCC[C@@H](C(=O)O)n2c3ccccc3c3ccccc32)cc1
170 to 171 °C | COc1ccc(-c2cc3cc(F)c(F)cc3[nH]2)cc1NCc1ccc([N+](=O)[O-])c(O)c1
198 to 200 °C | Cc1ccc(CO)cc1NC(=O)c1cccc([N+](=O)[O-])c1
120 to 121 °C | COC(=O)NC1CCc2sc(Cl)cc2C1 (stereo not drawn)
104 to 108 °C | COc1cccc2c1cc(C)n2Cc1ccc(F)cc1
230 to 232 °C | Nc1ccn(C[C@@H]2O[C@H](CO)[C@@H](O)[C@@H]2O)c(=O)n1
243 to 246 °C | O=C1Nc2cccc(-c3ccc(Oc4ccccc4)cc3)c2C12COc1cc3c(cc12)OCCO3 (stereo not drawn)
121 to 123 °C | CCOC(=O)Nc1cc([N+](=O)[O-])cc(CC)c1C(=O)O
157 to 158 °C | Ic1ccc2c(c1)ncn2-c1cccc(-c2ccccn2)c1
293 to 297 °C | CCCN1NCc2c(C3C(=O)Nc4ccc(Cl)cc43)ncnc21 (stereo not drawn)
159 to 160 °C | CC(=O)NCCC1CCc2ccn3nc(-c4ccccc4)cc3c21 (stereo not drawn)
187 to 189 °C | O=c1c(-c2ccccc2)ccc2n1CCc1sccc1-2
189 to 191 °C | O=C(NCc1ccc2cc(O)ccc2c1)c1cc(-c2ccc(Cl)cc2)oc1C(F)(F)F

melting point | SMILES
71 to 72 °C | CN1CCN(c2ccc(S(=O)(=O)c3ccccc3)c3ccccc23)CC1
186 °C | CN(C)CCCOc1ccc(C=CC(=O)N2CCc3c([nH]c4ccccc34)C2c2ccc3c(c2)CCO3)cc1 (stereo not drawn)
289 to 290 °C | O=C(Cc1ccccc1)Nc1n[nH]c(-c2ccc(F)cc2)c1-c1ccncc1
93 to 95 °C | O=C1c2ccccc2OCOc2ccccc21
97 to 98 °C | CSc1ccc(NC(=O)C2(C)CC2)cc1C(F)(F)F
138 °C | CCCCS(=O)(=O)c1ccc(NN)cc1
309 to 312 °C | CCCn1cc2c(C3C(=O)Nc4ccc(Br)cc43)nc(NCC3CCCO3)nc2n1 (stereo not drawn)
96 to 98 °C | COC(=O)c1ccc(NCCNC(=O)C2Cc3ccccc3N2S(=O)(=O)c2ccc(-c3cc(C(F)(F)F)ccc3Cl)cc2)cc1 (stereo not drawn)
149 to 150 °C | COC(=O)N=C(NC(=O)OC)Nc1ccc(S(=O)CC(C)C)cc1NC(=O)CS(C)=O (stereo not drawn)
166 to 168 °C | Clc1ccc(Cl)c(-c2nnnn2Cc2cccnc2)c1
167 to 170 °C | CCOC(=O)C(C)COc1ccccc1-c1cc(C#N)c(=O)[nH]c1C (stereo not drawn)
202 to 204 °C | CC1(C)NC(=O)N(CCC(COc2ccc(-c3ccc(C#N)cc3)cc2)N(O)C=O)C1=O (stereo not drawn)
197 to 199 °C | Cc1cccc(C(=O)NCc2cccc3c2C(=O)N(C2CCC(=O)NC2=O)C3=O)n1 (stereo not drawn)
223 to 225 °C | CCOC(=O)C1CCCN(c2ccc([N+](=O)[O-])c(C=C3NC(=O)NC3=O)c2)C1 (stereo not drawn)
122 to 125 °C | CN(C)CCNC(=O)c1ccc(-c2ccc3nnn(Cc4ccc5ncccc5c4)c3n2)cc1F
61 to 62 °C | CC(=O)NCCCc1ccc(Cl)c2occc12
152 to 153 °C | Cn1c(C(F)(F)F)cc(=O)n(-c2cc(OCC(=O)c3ccccc3)c(Cl)cc2F)c1=O
115 to 117 °C | CSCCOC(=O)N(C)c1cnc(-c2cncc(F)c2)s1
108 to 110 °C | COCC1CN(c2ccc(Br)nc2)C(=O)O1 (racemic)
60 to 61 °C | COC(=O)Cc1noc2cc(F)ccc12
137 to 138 °C | O=C(c1ccc(-n2cncn2)cc1)N1CCC(NCc2ccccc2)CC1
70 to 72 °C | CCCCCCCCCCCCC1=C(OC(=O)OC)C(=O)c2ccccc2C1=O
252 to 255 °C | Cc1ccccc1-c1c(Cn2cnc3c(N)ncnc32)oc2ccc(Br)cc2c1=O
116 to 118 °C | Fc1ccc(-c2cn3c(n2)SCC3)cc1

melting point | SMILES
163 to 164 °C | CCOC(=O)c1cn(C(c2ccccc2)(c2ccccc2)c2ccccc2)cn1
183 to 184 °C | COc1cc(OC(C)(C)C(=O)O)c(-c2cccs2)cc1C=O
57.5 °C | CCCCC[C@H]1CC[C@H](CCc2ccc(-c3ccc(Br)cc3F)cc2)CC1
42 to 44 °C | O=[N+]([O-])c1cccc(F)c1CCO
195 °C | CCS(=O)(=O)NNC(=O)NNS(=O)(=O)CC
73 to 74 °C | COc1cc(I)cc(OC)c1
243 to 245 °C | NS(=O)(=O)c1cc2c(s1)SCC(=O)N2
194 °C | O=C1Nc2ccccc2C2(c3ccccc3)OCCN12 (stereo not drawn)
190 to 192 °C | CC(C)N1CC(=O)N(c2ccc(O)cc2F)C1=O
240 to 241 °C | COc1cc(-c2cnc3[nH]cc(C(=O)C(C)(C)C)c3n2)cc(OC)c1OC
151 to 154 °C | CNN1C(=O)CSC1=Cc1cc(C(C)(C)C)c(O)c(C(C)(C)C)c1
289 to 290 °C | NC(=O)c1cnc(N)c([N+](=O)[O-])c1
66 to 68 °C | CCOC(=O)Cc1c(C(=O)OCC)c(C)cn1CCOS(C)(=O)=O
> 280 °C | CCCn1c(=O)c2[nH]c(/C=C/c3ccc(OC)c4ccccc34)nc2n(CCC)c1=O
127 to 133 °C | CN(C)CCCC1(C)CCc2cccc(O)c2O1 (stereo not drawn)
227 to 229 °C | CCNC1CCN(c2c(F)cc3c(=O)c(C(=O)O)cn(CC)c3c2F)C1 (stereo not drawn)
292 to 294 °C | CS(=O)(=O)N(CCO)c1c(Cl)c(C(F)(F)F)cc2[nH]c(=O)c(=O)[nH]c12
187 to 188 °C | CC1CCCC(C)N1Cc1ccc2cc(NC(=O)c3ccc(-c4ccc(F)cc4)cc3)ccc2n1 (stereo not drawn)
168 to 170 °C | Cc1cc(F)ccc1-c1cc(N2CCSCC2)ncc1N(C)C(=O)C(C)(C)c1cc(C(F)(F)F)cc(C(F)(F)F)c1
183 to 184 °C | Cc1ccc2nc(-c3cc(C(F)F)nn3-c3ccc(S(C)(=O)=O)cc3)sc2c1
185 to 205 °C | CC(=O)c1cccc2cc3c(C(C)=O)cccc3cc12
> 300 °C | O=c1ccn(-c2cc3[nH]c(=O)c(=O)[nH]c3cc2[N+](=O)[O-])cc1Cl
301 to 306 °C | Cc1ccc(S(=O)(=O)NC(Cc2ccccc2)C(=O)NCCCCC(C(=O)O)N(CC(C)C)S(=O)(=O)c2ccc(C)cc2)cc1 (stereo not drawn)
69 to 72 °C | O=Cc1ccc(OCc2ccc3ccccc3n2)cc1

melting point | SMILES
180 to 181 °C | CN(C(=O)c1ccc2nonc2c1)[C@H]1CC[C@@H](C#N)CC1
219 to 221 °C | CC(=O)OC1(C(=O)CCl)CCC2C3CCC4=CC(=O)CCC4(C)C3CCC21C (stereo not drawn)
230 to 232 °C | O=C1Nc2ccccc2C12COc1ccc3c(c12)N(Cc1cccnc1)ON3 (stereo not drawn)
138 to 140 °C | CC(C)Cc1ccc2c(c1O)C(=O)c1c(ccc(CC(C)C)c1O)C2=O
112 to 114 °C | c1cc(CC[C@H]2CNCCN2)co1
86 to 87 °C | Cc1ccc(S(=O)(=O)N(C)c2ccc(Cl)cc2Cl)cc1
300 to 307 °C | CC[Si](C#Cc1c2ccccc2c2ccc3c(C#C[Si](CC)(CC)CC)c4ccccc4c4ccc1c2c34)(CC)CC
76 °C | Cc1ccccc1OCCC(=O)N(C)c1ccccc1
154 to 157 °C | CC1CC(N)=NN1c1ccccn1 (stereo not drawn)
> 250 °C | N#Cc1cc(N2C=CN=CC2)c[nH]c1=O
218 to 220 °C | Cc1ccc(NS(=O)(=O)c2ccc(N3CCNC3=O)cc2)cc1
254 to 272 °C | CN(C)c1cc2c(=O)n(NS(C)(=O)=O)c(=O)[nH]c2cc1C(F)(F)F
84 to 86 °C | CCCN(CCC)c1ccc(CCC(=O)O)c2c1CCCN2C(=O)OC(C)(C)C
227 °C | O=C(O)c1ccc(-c2ccc(C(F)(F)F)cc2)s1
235 to 238 °C | CC(C)n1nc(-c2c(NCC(N)=O)nc(N)nc2-c2ccccc2)ccc1=O
164 to 166 °C | C/C(=C\c1ccc(Cc2cccnc2)cc1)C(=O)O
118 to 120 °C | CN(C)C(=O)Sc1ccc(Br)cc1C=O
98 to 100 °C | CCCCCCCCCCCCCCCCCCS(=O)(=O)c1cc(C(=O)OC)c([N+](=O)[O-])c(C(=O)OC)c1
132 to 133 °C | C=C1C=CC2CC1C(Cc1ccc(OC)cc1)NC2=O (stereo not drawn)
218 to 220 °C | N#Cc1ccc(OCc2ccncc2)cc1OC(C(=O)O)c1ccccc1 (racemic)
110 to 111 °C | CC(C)(C)C1=CC(=CC#N)C=C(C(C)(C)C)C1=O
99 to 100 °C | COc1cc(COc2nn(Cc3ccccc3)cc2CC(=O)O)ccc1OCc1nc(-c2ccccc2)oc1C
153 to 154 °C | O=C(c1cc(I)c(O)c(I)c1)c1c(Cc2ccccc2)oc2ccccc12

SMILES | melting point
Cc1ccc(N=C=S)c(C)c1COC(=O)[C@H]1[C@@H](C=C(Cl)C(F)(F)F)C1(C)C (relative stereo) | 60 °C
CC(C)CCCOC1CCC2C3C(=O)C=C4CC(O[Si](C)(C)C(C)(C)C)CCC4(C)C3CCC12C (stereo not drawn) | 143 to 145 °C
CCOC(=O)c1ncn2c1CN(Cc1ccc(OC)cc1OC)C(=O)c1ccccc1-2 | 136 to 138 °C
